Consider eleven compounds from publication PMC9166712, “Fluorescent probes for monitoring myeloperoxidase-derived hypochlorous acid: a comparative study” (Scientific Reports, 2022).

Where two headings read alike, the source gives them in different places.

Broadly, the IC50 is the concentration that gives 50% inhibition.

A short description of data set [1]: Competition kinetics of APC and APF with boronate reference for HOCl. In kind it is physicochemical. To be noted: FLBA (for APC) or CBA (for APF) 25 µM as reference, HOCl 5 µM, pH 7.4. The procedure: The rate constants of 1.8 × 10^4 M^−1s^−1 and 1.1 × 10^4 M^−1s^−1 were obtained for CBA and FLBA, respectively, which are typical values reported for this class of probes (Fig. 4a,b)[29],[36],[38],[45]. […] The highest rate constant was obtained for the NBD-TM probe which was equal to 1.0 × 10^7 M^−1s^−1. This rate constant was calculated using a second order rate constant of 1.8 × 10^4 M^−1s^−1 for the reference compound (CBA). The determined value of the rate constant for NBD-TM is consistent with the reaction rate constants reported for other thioethers with HOCl[41],[46].
(§1) Supplementary Figure S1. (a) Decrease of COH fluorescence in the incubation mixtures containing […]
(§2) in the presence of catalase (100 U/ml, black); in the absence of NaCl (green); in the absence of NaCl but in the presence of catalase (dark blue); in the absence of MPO (light blue); in th e absence of MPO but in the presence of catalase (pink). ( b), (c) same as (a) but instead of COH, incubation mixtures contained fluorescein and NBD -TSO, respectively.
Supplementary Figure S2. The relationship used to determine the rate constant between APF and HOCl (a), or […] and HOCl (b), according to the competition kinetic approach. The solid lines in the panel (a) and (b) represent the linear fittings to the equation […]
(2kFLBA+HOCl = 1,11 × 104 M-1s-1). […] The concentrations of COH and fluorescein were determined by LC/MS. […]

The target in data set [2] is T1, MPO (Homo sapiens, UniProt P05164). The experiment in a line: Z' parameter of the MPO/H2O2/Cl- assays. Also noted: MPO from human neutrophils was obtained from Athens Research and Technology; purchased Athens Research and Technology (Athens, GA); host or cells: human neutrophils (natural source, donor material). The conditions noted are these: both end-point (20 min) and kinetic (initial rates over 5 min) measurements. As to the method: The Z’ parameter is a measure of the assay quality in terms of its applicability to screen for bioactive compounds in cell-free or cell-based systems. The Z’ value of 0.5 or higher is generally accepted for the application of any assay for high throughput screening (HTS) of large chemical libraries. For the probes tested, the Z’ parameter was calculated on the basis of end-point measurements (fluorescence measured at a specific time of incubation) and kinetic measurements (rates of fluorescence increase), according to the Eq. 5. In the end-point measurements the Z’ values were calculated for the time of incubation equal to 20 min. To calculate the kinetic Z’ the initial rates of fluorescent product formation over 5 min were used. […] The lowest Z’ values around 0.7 were obtained for the NBD-TM probe. All the probes produced the Z’ values compatible with HTS applications.
The Z’ factor is a dimensionless coefficient and was calculated on the basis of data presented in Fig. 3 according to the equation below (Eq. 5)[57].5 Z^′=1-3S.D.control+-3S.D.control -/meancontrol +-meancontrol -, where S.D.control+ and S.D.control- are the standard deviation values, and meancontrol+ and meancontrol- are the mean values for the positive and negative control, respectively. The value of Z ' above 0.5 means good quality of the assay. The higher value of Z ' parameter means the better quality of the assay. This parameter cannot reach value higher than 1.

The nature of data set [3]: Stability of probe stock solutions. In kind it is physicochemical. The conditions noted are these: stock in acetonitrile or water/acetonitrile (1:1 v/v), 6 °C in the dark. As to the method: In the case of FLBA and APF, the two millimolar probe solutions were prepared in the water/acetonitrile mixture (1:1 v/v).
Data set [4] addresses T1, MPO. To be noted: read-out: recommended average IC50 value; average of CBA, FLBA and NBD-TM probes. The procedure:
(§3) Mixtures contained MPO (1.2 nM), H2O2 (10 µM), NaCl (0.1 M), phosphate buffer (50 mM, pH 7.4), and the appropriate probe (20 µM). […] In the calculations the initial rates of probes oxidation were used. (Data are means ± standard deviation of three independent experiments).

In data set [5] the target is T1, MPO. The conditions noted are these: read-out: Azide anion IC50, MPO 1.2 nM, H2O2 10 µM, pH 7.4. The procedure:
as §3
MPO from human neutrophils was obtained from Athens Research and Technology (Athens, GA, According to the Certificate of Origin, the material used has been obtained from an FDA licensed collection center. Further the donors has given by signature full informed consent for the material to be used in commercial scientific research). […] Fluorescent probes were synthetized according to the procedures described in the literature. The synthesis of fluorescein pinacol boron ester (Fl-B) was performed based on the procedures published by Dickinson et al. and Rios et al.[58],[59]. The obtained boronate was then hydrolyzed to fluorescein boronic acid (FLBA). The synthesis of APF was performed based on the procedure published by Setsukinai and cooworkers. […] The detailed description of synthetic procedures can be found in the Supplementary Information. The CBA synthesis is described elsewhere[37],[61].
The lyophilized powder of MPO was dissolved in distilled water accordingly to the supplier recommendation and, if required, stored at 6 °C by the day of analysis. Such prepared solution was then diluted with phosphate buffer, pH 7.4, to the appropriate concentration and the volume of 0.5–2 µL/well depending on the activity was pipetted directly to 96-well plate (Costar 3840). […] Reactions were stared adding 100 µl/well of 20 µM hydrogen peroxide solution.

Data set [6] can be described thus: Stability of fluorophores in the MPO/H2O2/Cl- system. In kind it is physicochemical. To be noted: fluorophore 5 µM, MPO 1.2 nM, H2O2 10 µM, NaCl 0.1 M, pH 7.4. The procedure: To check the stability of the COH, FL, and NBD-TSO fluorescence signal under the oxidizing conditions of MPO/H2O2/Cl^–, the fluorophores were incubated under the same reaction conditions, as described above for the five probes used in the study (Supplementary Figure S1). […] Overall, the fluorophores formed from the probes used may undergo consumption in the presence of MPO, H2O2 and Cl^–, due to their reaction with HOCl and/or via peroxidatic activity of MPO in the absence of Cl^–. This is, however, expected to occur only under the condition of excess of the oxidants (H2O2 and/or HOCl), as evidenced by the stable fluorescence signals of the products observed within 1 h of incubation (Fig. 3). The experimental design for monitoring HOCl involving probes producing such fluorophores should, therefore, take into account potential consumption of the fluorescent product, when the amount of the oxidant exceeds the probe availability.
as §1, §2
Supplementary Figure S2. The relationship used to determine the rate constant between APF and HOCl (a), or […] and HOCl (b), according to the competition kinetic approach. The solid lines in the panel (a) and (b) represent the linear fittings to the equation
1 = 1 + 1 kAPC/or APF [APC/orAPF]. In the case of reaction between […]
(2kFLBA+HOCl = 1,11 × 104 M-1s-1). In the case of APF, the samples contained APF (0 – 100 µM), HOCl (5 µM), and CBA (25 µM) as a reference compound (2kCBA+HOCl = 1,80 × 104 M-1s-1). The concentrations of COH and fluorescein were determined by LC/MS. […]

The conditions of data set [7]: cited from earlier work.
A short description of data set [8]: Effect of DMSO on HOCl-induced probe oxidation. In kind it is physicochemical. To be noted: 20 µM probe, 10 µM HOCl, pH 7.4. The text has this:
DMSO is a solvent well tolerated by cells and it is often used to dissolve organic compounds intended for cell culture studies. Most chemical libraries for HTS applications use DMSO as the solvent. However, DMSO reacts directly with HOCl with a second-order rate constant of 350 ± 40 M^−1s^−1 and it has been shown that it may interfere with oxidation of boronate probes by HOCl[49]. Thus, the influence of DMSO additive on the observed fluorescence signal generated in the reaction between HOCl and the studied probes was evaluated. In this experiment, the incubation mixtures contained the chosen probe (20 µM), phosphate buffer (50 mM, pH 7.4), and DMSO in the amounts between 0–5% v/v (0–0.7 M). The reaction with HOCl was initiated by the bolus addition of 1 mM sodium hypochlorite to obtain the final HOCl concentration of 10 µM. In the case of NBD-TM that reacts rapidly and stoichiometrically (1:1 ratio) with HOCl[44] about 10 µM of NBD-TSO was formed (Fig. 6). […] The presence of 0.5% v/v (0.07 M) or higher concentrations of DMSO was sufficient to completely scavenge HOCl and block the fluorescence increase.
Incubation mixtures contained 20 µM of a probe, 10 µM HOCl, 0–5% v/v (0–0.7 M) DMSO, and 50 mM phosphate buffer (pH 7.4). (Representative result of three independent experiments is shown. Points represent means ± S.D.)

T1 sequence (P05164 279-745 limits assumed): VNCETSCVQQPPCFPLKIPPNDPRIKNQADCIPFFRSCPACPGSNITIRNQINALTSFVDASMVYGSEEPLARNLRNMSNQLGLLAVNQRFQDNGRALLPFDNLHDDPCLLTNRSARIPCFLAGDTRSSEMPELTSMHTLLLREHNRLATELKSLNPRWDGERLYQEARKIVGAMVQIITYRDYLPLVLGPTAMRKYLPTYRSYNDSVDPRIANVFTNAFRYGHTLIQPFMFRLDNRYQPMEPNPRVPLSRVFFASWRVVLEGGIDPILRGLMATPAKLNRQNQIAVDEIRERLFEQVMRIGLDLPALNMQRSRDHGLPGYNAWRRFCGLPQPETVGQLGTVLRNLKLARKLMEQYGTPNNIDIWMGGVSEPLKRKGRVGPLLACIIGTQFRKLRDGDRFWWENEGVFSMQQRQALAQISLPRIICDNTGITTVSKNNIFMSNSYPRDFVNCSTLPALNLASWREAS
T1 sequence (P05164 165-273 limits assumed): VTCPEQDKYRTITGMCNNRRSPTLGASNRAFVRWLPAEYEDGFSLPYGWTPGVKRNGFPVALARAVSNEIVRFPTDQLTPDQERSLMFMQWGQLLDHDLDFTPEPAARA

For 7-(p-aminophenyl)-coumarin [APC], in data set [1], the “rate constant with HOCl by competition kinetics compared with stopped-flow value” is listed as “nearly identical rate constants”. Further, in data set [2], the “Z' value” was “around 0.9”.

As for `Nc1ccc(Oc2ccc3c(-c4ccccc4C(=O)O)c4ccc(=O)cc-4oc3c2)cc1` [APF, 3’-(p-aminophenyl)-fluorescein], the “rate constant with HOCl by competition kinetics compared with stopped-flow value” in data set [1] is on record as “nearly identical rate constants”. In data set [2], the “Z' value” is reported as “around 0.9”. In data set [3], the “stability of stock solution” value is reported as “stable at least one-month”.

Turning to `[N-]=[N+]=[N-]` [Azide anion, sodium azide], the IC50 in data set [4] was found to be 700 nM; in data set [5] (APC probe 20 µM, NaCl 0.1 M) it was 1940 nM; in data set [5] (APF probe 20 µM, NaCl 0.1 M), 2370 nM; in data set [5] (Amplex Red 20 µM, no NaCl), 1040 nM; in data set [5] (Amplex Red 20 µM, no NaCl, listed as N3^–), 1000 nM; in data set [5] (CBA probe 20 µM, NaCl 0.1 M) it was 810 nM. The IC50 in data set [5] (FLBA probe 20 µM, NaCl 0.1 M) came out at 540 nM; in data set [5] (NBD-TM probe 20 µM, NaCl 0.1 M), 630 nM.

Consider `O=c1ccc2ccc(B(O)O)cc2o1` [CBA, coumarin boronic acid], for which the “Z' value” in data set [2] is recorded as “around 0.9”. The “stability of stock solution” value in data set [3] is given as “stable at least one-month”.

In the case of `O=c1ccc2ccc(O)cc2o1` [COH, 7-hydroxycoumarin], the “stability of the fluorescence signal” value in data set [6] was “decreasing with the time of incubation”.

For `C[S+](C)[O-]` [DMSO], the “second-order rate constant of the reaction with HOCl” value in data set [7] is 350 ± 40 M⁻¹ s⁻¹.

Regarding `O=C(O)c1ccccc1-c1c2ccc(=O)cc-2oc2cc(B(O)O)ccc12` [FLBA, fluorescein boronic acid], the “Z' value” in data set [2] is listed as “around 0.9”. Besides, in data set [3], the “stability of stock solution” value was “stable at least one-month”.

For `CSCC[C@H](N)C(=O)O` [L-methionine], the “reaction rate constant with HOCl (^2k)” value in data set [7] is 3.4e+07 M⁻¹ s⁻¹.

Regarding `O=[N+]([O-])c1ccc(N2CCSCC2)c2nonc12` [NBD-TM, 4-thiomorpholino-7-nitrobenz-2-oxa-1,3-diazole], the “Z' value” in data set [2] is on record as “around 0.7”. Moreover, the figures for the “decrease of NBD-TSO concentration by DMSO” value in data set [8] (0.5% (0.07 M) DMSO), in data set [8] (1% (0.14 M) DMSO) and in data set [8] (5% (0.7 M) DMSO) were “about 5%”, “about 10%” and about 35%, respectively.

As to `O=[N+]([O-])c1ccc(N2CC[S+]([O-])CC2)c2nonc12` [NBD-TSO], the “stability of the fluorescence signal” value in data set [6] is given as “slowly decomposing or precipitated during the time of incubation”.

For `O=C1OC2(c3ccc(O)cc3Oc3cc(O)ccc32)c2ccccc21` [fluorescein], in data set [6], the “stability of the fluorescence signal” value is recorded as “a slight decrease in the fluorescence intensity”.
